The source of these data is patent US20060009493A1, “Indolinone hydrazides as c-Met inhibitors” (Sugen, Inc., priority 2003, published 2006).

The term IC50 denotes the concentration at which inhibition is half-maximal.

Several values for one entry are separate records, joined by “and”; a condition that tells them apart may be missing. Equal entries are not always repeated.

The target in the assay is T1, GST fusion protein containing the Met kinase domain (Homo sapiens, UniProt P08581).
T1 construct: Purified GST fusion protein containing the Met kinase domain, Sugen, Inc
T1 sequence (P08581 1078-1345 limits assumed): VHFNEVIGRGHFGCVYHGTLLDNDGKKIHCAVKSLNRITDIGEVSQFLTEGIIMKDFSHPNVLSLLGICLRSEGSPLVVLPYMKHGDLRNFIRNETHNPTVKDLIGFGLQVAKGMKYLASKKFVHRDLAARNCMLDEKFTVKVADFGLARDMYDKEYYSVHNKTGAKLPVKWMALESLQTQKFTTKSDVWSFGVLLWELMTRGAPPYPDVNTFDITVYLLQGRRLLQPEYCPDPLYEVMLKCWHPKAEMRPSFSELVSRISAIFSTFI
Briefly: MET Transphosphorylation Assay (ELISA, poly(Glu,Tyr) 4:1 substrate). Type of assay: biochemical. Particulars: met transphosphorylation of poly(glutamic acid:tyrosine 4:1) substrate; two values in a cell separated by '/'. The method, then:
MET Transphosphorylation Assay
This assay is used to measure phosphotyrosine levels on a poly(glutamic acid:tyrosine (4:1)) substrate as a means for identifying agonists/antagonists of met transphosphorylation of the substrate.
• 1. […] PBS, Gibco Catalog # 450-1300EB • 4. 50 mM HEPES • 5. […] Purified GST fusion protein containing the Met kinase domain, Sugen, Inc. • 7. TBST Buffer. • 8. 10% aqueous (MilliQue H2O) DMSO. • 9. […] 2× Kinase Dilution Buffer: for 100 ml, mix 10 mL 1M HEPES at pH 7.5 with 0.4 mL 5% BSA/PBS, 0.2 mL 0.1 M sodium orthovanadate and 1 mL 5M sodium chloride in 88.4 mL dH2O. • 11. 4×ATP Reaction Mixture: for 10 mL, mix 0.4 mL 1 M manganese chloride and 0.02 mL 0.1 M ATP in […] dH2O. • 12. 4× Negative Controls Mixture: for 10 mL, mix 0.4 mL 1 M manganese chloride in 9.6 mL dH2O.
13. […] 500 mM EDTA. • 15. Antibody Dilution Buffer: for 100 mL, mix 10 mL 5% BSA/PBS, 0.5 mL 5% Carnation Instant Milk® in PBS and 0.1 mL 0.1 M sodium orthovanadate in 88.4 mL TBST. • 16. Rabbit polyclonal antophosphotyrosine antibody, Sugen, Inc. • 17. Goat anti-rabbit horseradish peroxidase conjugated antibody, Biosource, Inc. • 18. ABTS Solution: for 1 L, mix 19.21 g citric acid, 35.49 g Na2HPO4 and 500 mg ABTS with sufficient dH2O to make 1 L. • 19. ABTS/H2O2: mix 15 mL ABST solution with 2 μL H2O2 five minutes before use. • 20. 0.2 M HCl Procedure: • 1. Coat ELISA plates with 2 μg Poly(Glu-Tyr) in 100 μL PBS, store overnight at 4° C. • 2. Block plate with 150 μL of 5% BSA/PBS for 60 min. • 3. Wash plate twice with PBS, once with 50 mM Hepes buffer pH 7.4. • 4. Add 50 μl of the diluted kinase to all wells. (Purified kinase is diluted with Kinase Dilution Buffer. Final concentration should be 10 ng/well.) • 5. Add 25 μL of the test compound (in 4% DMSO) or DMSO alone (4% in dH2O) for controls to plate. • 6. Incubate the kinase/compound mixture for 15 minutes. • 7. Add 25 μL of 40 mM MnCl2 to the negative control wells. • 8. Add 25 μL ATP/MnCl2 mixture to the all other wells (except the negative controls). Incubate for 5 min. • 9. Add 25 μL 500 mM EDTA to stop reaction. • 10. Wash plate 3× with TBST. • 11. Add 100 μL rabbit polyclonal anti-Ptyr diluted 1:10,000 in Antibody Dilution Buffer to each well. Incubate, with shaking, at room temperature for one hour. • 12. Wash plate 3× with TBST. • 13. […] Add 100 μL per well and incubate at room temperature, with shaking, for one hour. • 14. Wash plate 1× with PBS. • 15. Add 100 μl of ABTS/H2O2 solution to each well. • 16. If necessary, stop the development reaction with the addition of […] of 0.2M HCl per well. • 17.
A general note: In an ELISA, binding on a coated surface is turned into a signal by an enzyme label.
On to `O=C(Cc1ccc(OCCN2CCCC2)cc1)N/N=C1\C(=O)Nc2ccccc21` [Example I-1], for which the IC50 stood at 10.4 µM.
Then `O=C1Nc2ccccc2/C1=N/NC(=O)C(O)c1ccc(O)cc1` (centres unmarked) [Example I-3, Hydroxy-(4-hydroxy-phenyl)-acetic acid [(3Z)-2-oxo-1,2-dihydro-indol-3-ylidene]-hydrazide], with 10.7 µM; and `CC(=O)Nc1ccc(CC(=O)N/N=C2\C(=O)Nc3ccccc32)cc1` [Example I-4, N-[4-[(3Z)-2-Oxo-1,2-dihydro-indol-3-ylidene-hydrazinocarbonylmethyl]-phenyl]-acetamide], with above 20 µM; and `COC(C(=O)N/N=C1\C(=O)Nc2ccccc21)c1ccccc1` (centres unmarked) [Example I-5, Methoxy-phenyl-acetic acid [(3Z)-2-oxo-1,2-dihydro-indol-3-ylidene]-hydrazide], with > 20 µM and 13.6 µM.
Then `O=C1Nc2ccccc2/C1=N/NC(=O)C1(c2ccccc2)CC1` [Example I-6, 1-Phenyl-cyclopropanecarboxylic acid [(3Z)-2-oxo-1,2-dihydro-indol-3-ylidene]-hydrazide], with above 20 µM; and `O=C1Nc2ccccc2/C1=N/NC(=O)C(CO)c1ccccc1` (centres unmarked) [Example I-7, 3-Hydroxy-2-phenyl-propionic acid [(3Z)-2-oxo-1,2-dihydro-indol-3-ylidene]-hydrazide], with above 20 µM.
Then `O=C(Cc1ccc(O)cc1)N/N=C1\C(=O)Nc2ccc(S(=O)(=O)Cc3c(Cl)cccc3Cl)cc21` [Example I-8, (4-Hydroxy-phenyl)-acetic acid [(3Z)-5-(2,6-dichloro-phenylmethanesulfonyl)-2-oxo-1,2-dihydro-indol-3-ylidene]-hydrazide], with 0.007 µM; and `CS(=O)(=O)c1ccc2c(c1)/C(=N/NC(=O)Cc1ccc(O)cc1)C(=O)N2` [Example I-9, (4-Hydroxy-phenyl)-acetic acid [(3Z)-5-methanesulfonyl-2-oxo-1,2-dihydro-indol-3-ylidene]-hydrazide], with < 0.0091 µM and 0.022 µM; and `O=C(Cc1ccc(O)cc1)N/N=C1\C(=O)Nc2ccc(C(=O)O)cc21` [Example I-10, (3Z)-3-{[2-(4-Hydroxy-phenyl)-acetyl]-hydrazono}-(3Z)-2-oxo-2,3-dihydro-1H-indole-5-carboxylic acid], with 0.9 µM.
Compound `COC(=O)c1ccc2c(c1)/C(=N/NC(=O)Cc1ccc(O)cc1)C(=O)N2` [Example I-11, (3Z)-3-{[2-(4-Hydroxy-phenyl)-acetyl]-hydrazono}-(3Z)-2-oxo-2,3-dihydro-1H-indole-5-carboxylic acid methyl ester] yielded an IC50 of 0.043 µM.
Then `CN1CCN(C(=O)c2ccc3c(c2)/C(=N/NC(=O)Cc2ccc(O)cc2)C(=O)N3)CC1` [Example I-12, (4-Hydroxy-phenyl)-acetic acid [(3Z)-5-(4-methyl-piperazine-1-carbonyl)-2-oxo-1,2-dihydro-indol-3-ylidene]-hydrazide], with 0.078 µM.
Then `O=C(Cc1ccc(O)cc1)N/N=C1\C(=O)Nc2ccc(Br)c(-c3cccc(F)c3)c21` [Example I-13, (4-Hydroxy-phenyl)-acetic acid [(3Z)-5-bromo-4-(3-fluoro-phenyl)-2-oxo-1,2-dihydro-indol-3-ylidene]-hydrazide], with 1.06 µM.
Then `O=C(Cc1ccc(O)cc1)N/N=C1\C(=O)Nc2cccc(-c3cccc(F)c3)c21` [Example I-14, (4-Hydroxy-phenyl)-acetic acid [(3Z)-4-(3-fluoro-phenyl)-2-oxo-1,2-dihydro-indol-3-ylidene]-hydrazide], with 0.5 µM.
The compound `O=C(Cc1ccc(O)cc1)N/N=C1\C(=O)Nc2cccc(-c3ccc(F)cc3)c21` [Example I-15, (4-Hydroxy-phenyl)-acetic acid [(3Z)-4-(4-fluoro-phenyl)-2-oxo-1,2-dihydro-indol-3-ylidene]-hydrazide] registered a concentration for half-maximal inhibition (IC50) of 0.89 µM.
